How the values were obtained:
[1] = AUC (0 to 24 hrs) in Sprague-Dawley rat at 5 mg/kg, po by LC/MS/MS analysis; assay type: ADME, organism-based; parameters: time < 24 hr, dose 5 mg/kg, route oral; details: plasma
[2] = target: T1, Bifunctional epoxide hydrolase 2 (Homo sapiens, UniProt P34913); assay: Inhibition of human soluble epoxide hydrolase by fluorescent endpoint assay
T1 sequence (P34913 whole entry): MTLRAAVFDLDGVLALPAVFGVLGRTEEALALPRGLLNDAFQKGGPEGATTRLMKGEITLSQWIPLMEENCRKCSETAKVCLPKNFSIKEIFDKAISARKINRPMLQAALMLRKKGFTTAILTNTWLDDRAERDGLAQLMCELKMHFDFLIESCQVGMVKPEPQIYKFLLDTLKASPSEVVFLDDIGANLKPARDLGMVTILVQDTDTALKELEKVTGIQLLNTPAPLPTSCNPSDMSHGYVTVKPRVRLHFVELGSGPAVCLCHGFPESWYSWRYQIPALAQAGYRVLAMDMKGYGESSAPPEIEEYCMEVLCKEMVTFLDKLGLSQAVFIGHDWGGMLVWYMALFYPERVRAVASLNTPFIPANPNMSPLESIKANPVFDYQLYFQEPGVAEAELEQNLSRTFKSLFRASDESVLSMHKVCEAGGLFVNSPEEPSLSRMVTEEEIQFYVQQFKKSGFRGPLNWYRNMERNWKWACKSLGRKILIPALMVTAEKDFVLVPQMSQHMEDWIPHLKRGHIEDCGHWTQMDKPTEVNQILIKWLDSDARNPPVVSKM

[3] = Cmax in Sprague-Dawley rat at 5 mg/kg, po by LC/MS/MS analysis; assay type: ADME, organism-based; parameters: dose 5 mg/kg, route oral; details: in vivo

| AUC(0-t) at 24 h [1] [ng·h/mL] | IC50 [2] [nM] | Cmax [3] [ng/mL] | Compound |
| --- | --- | --- | --- |
| 8 | 1 | 5 | O=C(Nc1ccc(C(F)(F)F)cc1)Nc1cccc(OCCCN2CCOCC2)c1 |
| – | 8 | – | O=C(Nc1ccc(OC(F)(F)F)cc1)Nc1cccc(OCCCN2CCOCC2)c1 |
| 131 | – | 102 | O=C(Nc1cccc(OCCCN2CCOCC2)c1)NC1CCCCC1 |
| 3570 | 38 | 1570 | O=C(Nc1ccccc1)Nc1cccc(OCCCN2CCOCC2)c1 |
| – | 1.3 | – | O=C(CC12CC3CC(CC(C3)C1)C2)Nc1ccc(OCCCN2CCOCC2)cc1 |
| – | 6.5 | – | O=C(Nc1ccc(F)c(OCCCN2CCOCC2)c1)NC1CCCCC1 |
| – | 365 | – | O=C(Cc1ccc2c(c1)OCO2)Nc1cccc(OCCCN2CCOCC2)c1 |
| – | 240 | – | CN(C)c1cccc(NC(=O)Nc2cccc(OCCCN3CCOCC3)c2)c1 |
| – | 4.8 | – | O=C(Nc1ccc(Cl)cc1)Nc1ccc(F)c(OCCCN2CCOCC2)c1 |
| – | 321 | – | O=C(Cc1ccc(F)c(F)c1)Nc1cccc(OCCCN2CCOCC2)c1 |
| – | 1040 | – | CC(C)(C)NC(=O)Nc1cccc(OCCCN2CCOCC2)c1 |
| – | 1.5 | – | O=C(Nc1ccc(Cl)cc1)Nc1ccc(OCCCN2CCOCC2)cc1 |
| 491 | 14 | 123 | O=C(Nc1ccc(F)cc1)Nc1cccc(OCCCN2CCOCC2)c1 |
| – | 14000 | – | O=C(Cc1cccnc1)Nc1cccc(OCCCN2CCOCC2)c1 |
| – | 0.8 | – | O=C(Nc1ccc(OCCCN2CCOCC2)cc1)Nc1ccc(OC(F)(F)F)cc1 |
| – | 40 | – | O=C(Nc1ccc(F)cc1)Nc1ccc(F)c(OCCCN2CCOCC2)c1 |
| – | 6.6 | – | O=C(CC12CC3CC(CC(C3)C1)C2)Nc1ccc(F)c(OCCCN2CCOCC2)c1 |
| – | 1550 | – | CC(C)(C)CC(=O)Nc1cccc(OCCCN2CCOCC2)c1 |
| – | 870 | – | O=C(Cc1ccccc1)Nc1ccc(OCCCN2CCOCC2)cc1 |
| – | 54 | – | O=C(Cc1ccc(C(F)(F)F)cc1)Nc1ccc(OCCCN2CCOCC2)cc1 |
| – | 42 | – | O=C(Cc1ccc(OC(F)(F)F)cc1)Nc1ccc(OCCCN2CCOCC2)cc1 |
| – | 116 | – | O=C(Cc1ccc(Cl)cc1)Nc1cccc(OCCCN2CCOCC2)c1 |

| AUC(0-t) at 24 h [1] [ng·h/mL] | IC50 [2] [nM] | Cmax [3] [ng/mL] | Compound |
| --- | --- | --- | --- |
| – | 81 | – | O=C(Nc1ccccc1)Nc1ccc(F)c(OCCCN2CCOCC2)c1 |
| – | 13.8 | – | O=C(Nc1cccc(OCCCN2CCOCC2)c1)Nc1cccc(C(F)(F)F)c1 |
| 753 | 33 | 218 | O=C(Nc1cccc(OCCCN2CCOCC2)c1)Nc1ccc2c(c1)OCO2 |
| – | 140 | – | O=C(Cc1ccc(Cl)cc1)Nc1ccc(OCCCN2CCOCC2)cc1 |
| – | 1880 | – | O=C(Nc1cccc(OCCCN2CCOCC2)c1)Nc1c(F)cc(F)cc1F |
| – | 0.8 | – | O=C(Nc1ccc(F)c(OCCCN2CCOCC2)c1)NC12CC3CC(CC(C3)C1)C2 |
| – | 1.3 | – | O=C(Nc1ccc(C(F)(F)F)cc1)Nc1ccc(F)c(OCCCN2CCOCC2)c1 |
| – | 5000 | – | O=C(Nc1cccnc1)Nc1cccc(OCCCN2CCOCC2)c1 |
| – | 0.8 | – | O=C(Nc1ccc(OC(F)(F)F)cc1)Nc1ccc(F)c(OCCCN2CCOCC2)c1 |
| – | 39 | – | O=C(Nc1ccccc1)Nc1ccc(OCCCN2CCOCC2)cc1 |
| 1050 | 0.8 | 263 | O=C(Nc1ccc(OCCCN2CCOCC2)cc1)Nc1ccc(C(F)(F)F)cc1 |
| 3 | 11 | 3 | O=C(Nc1cccc(OCCCN2CCOCC2)c1)Nc1ccc(F)c(F)c1 |
| – | 43 | – | O=C(Cc1ccc(OC(F)(F)F)cc1)Nc1cccc(OCCCN2CCOCC2)c1 |
| – | 145 | – | O=C(Cc1ccc(OC(F)(F)F)cc1)Nc1ccc(F)c(OCCCN2CCOCC2)c1 |
| – | 5.2 | – | O=C(CC12CC3CC(CC(C3)C1)C2)NC1CCCC(OCCCN2CCOCC2)C1 (stereo not drawn) |
| – | 2.5 | – | O=C(NC1CCCC(OCCCN2CCOCC2)C1)NC12CC3CC(CC(C3)C1)C2 (stereo not drawn) |
| – | 10000 | – | O=C(Nc1cccc(OCCCN2CCOCC2)c1)Nc1c(Cl)cccc1Cl |
| 57 | 550 | 48 | O=C(Cc1ccc(F)cc1)Nc1cccc(OCCCN2CCOCC2)c1 |
| 9 | 2 | 6 | O=C(Nc1ccc(Cl)cc1)Nc1cccc(OCCCN2CCOCC2)c1 |
| – | 156 | – | O=C(Cc1ccc(C(F)(F)F)cc1)Nc1ccc(F)c(OCCCN2CCOCC2)c1 |
| – | 121 | – | O=C(Nc1cccc(OCCCN2CCOCC2)c1)Nc1ccc(F)cc1F |
| 863 | 5.4 | 669 | O=C(Nc1ccc(OCCCN2CCOCC2)cc1)NC1CCCCC1 |

Reference: ChEMBL document CHEMBL1152369, “Unsymmetrical non-adamantyl N,N'-diaryl urea and amide inhibitors of soluble expoxide hydrolase” (Bioorg Med Chem Lett, 2009)
